Experimental findings from US12037325B2, “1,2-diaminobenzimidazole derivative” (Carna Biosciences, Inc., priority 2021, dated 2024) are described below.

Where a name gives a salt, the structure may show the parent alone.

The target in assay [1] is T1, hSTING (Homo sapiens, UniProt Q86WV6).
T1 construct: host or cells: HEK-Blue ISG cells (HEK293-derived SEAP reporter line)
Description: Inhibition test of intracellular human STING (hSTING) pathways using reporter cells (HEK-Blue ISG, SEAP reporter). The format is cell-based. Particulars: stimulation with Compound 3 (10 nM), 21 hours; for IC50: read-out: Inhibitory Activity on hSTING. The method, then: Since STING activates the transcription factor IRF3 by ligand stimulation, the activity of STING can be evaluated by a reporter assay using a secreted alkaline phosphatase (SEAP reporter) incorporated downstream of the IRF-inducible promoter. In other words, the hSTING inhibitory activity of the test compounds was evaluated using HEK-Blue™ ISG cells (manufactured by InvivoGen, #hkb-isg-1) into which the SEAP reporter was incorporated. The activation of hSTING was performed by stimulation with the small molecule ligand, Compound 3 as described in the literature (Ramanjulu, J. M., et al., Nature. 2018, 564 (7736), 439-443).
The HEK-Blue™ ISG cells were seeded in 96-well plates and cultured overnight at 37° C. in a 5% CO2 incubator. To each well of the cell culture plates, a test compound solution adjusted to have a final concentration of 0.1 to 10 μM was added and cultured in the CO2 incubator for 1 hour. Then, the Compound 3 (final concentration of 10 nM) was added thereto and further cultured in the CO2 incubator for 21 hours. After collecting the culture supernatant from each well, the reporter activity was measured by luminous reaction of alkaline phosphatase.
Method for Evaluating Inhibitory Activity. Taking the reporter activity in the group without test compounds added and with Compound 3 added as 100% and the reporter activity in the group without test compounds added and without Compound 3 added as 0%, IC50 values were determined by regression analysis of the inhibition rate calculated from the reporter activity at each compound concentration and the test compound concentration (logarithm).
Evaluation Result. […] The inhibitory effect on the hSTING was indicated by marking an IC50 value of less than 0.1 μM with ***, that of 0.1 μM or more and less than 1 μM with **, that of 1 μM or more and less than 10 μM with *, and that of 10 μM or more with “-”.

For assay [2], the target named is T2, STING (Homo sapiens, UniProt Q86WV6, G230A/H232R/R293Q/R71H).
T2 construct: host or cells: THP-1 cells, PMA-treated
T2 sequence (Q86WV6 whole entry R71H/G230A/H232R/R293Q): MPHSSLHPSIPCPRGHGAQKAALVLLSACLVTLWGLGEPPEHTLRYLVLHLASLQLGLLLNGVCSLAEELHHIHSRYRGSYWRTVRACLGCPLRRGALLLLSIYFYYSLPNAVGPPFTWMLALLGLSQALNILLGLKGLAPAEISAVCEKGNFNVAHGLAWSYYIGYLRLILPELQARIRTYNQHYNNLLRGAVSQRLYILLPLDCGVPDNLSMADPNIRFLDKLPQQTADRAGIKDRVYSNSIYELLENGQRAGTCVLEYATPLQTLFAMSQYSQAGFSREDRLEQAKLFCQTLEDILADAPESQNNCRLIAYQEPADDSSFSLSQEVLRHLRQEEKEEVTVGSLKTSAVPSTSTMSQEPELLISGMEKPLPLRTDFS
As to the kind of experiment: Inhibition test of human IFN-β production by cGAMP stimulation in THP-1 cells. The settings on record: PMA-treated THP-1 cells, 2'3'-cGAMP transfection, 18 hours, ELISA of culture supernatant; read-out: Inhibitory effect on the IFN-β production. The format is cell-based. The method, then:
The human monocytic cell line THP-1 cells were used to measure the amount of IFN-β produced when stimulated with the endogenous ligand cGAMP, thereby evaluating the inhibitory activity of the test compounds on STING activation.
After THP-1 cells (manufactured by ATCC) were seeded in 96-well plates, PMA (manufactured by Santa Cruz Biotechnology, Inc.) adjusted to a concentration after addition of 100 nM was added and cultured overnight at a 37° C. in a 5% CO2 incubator (10% FBS, 50 U/mL penicillin/50 μg/mL streptomycin-containing RPMI 1640 medium). To each well of the plate, a test compound solution adjusted to a final concentration of 0.001-1 μM of the test compound was added and cultured in the CO2 incubator for 1 hour (DMSO final concentration of 0.1%). 0.12 μg/well of 2′3′-cGAMP (manufactured by ChemieTek, #CT-CGAMP) was introduced into the cells by transfection method using Lipofectamine 2000 (manufactured by Invitrogen) and cultured in the CO2 incubator for another 18 hours. After collecting the culture supernatant from each well, the amount of human IFN-P production in the culture supernatant was measured by ELISA method using R&D human IFN-β Duoset (manufactured by R&D systems).
Method for Evaluating Inhibitory Activity. Taking the amount of human IFN-β production in the group without test compounds added and with cGAMP added as 100% and the amount of human IFN-β production in the group without test compounds added and without cGAMP added as 0%, IC50 values were determined by regression analysis of the inhibition rate calculated from the amount of human IFN-β production at each compound concentration and the test compound concentration (logarithm).
Evaluation Result. […] The inhibitory effect on the IFN-β production was indicated by marking an IC50 value of less than 0.01 μM with ***, that of 0.01 μM or more and less than 0.1 μM with **, that of 0.1 μM or more and less than 1 μM with *, and that of 1 μM or more with “-”, and NT was marked as unmeasured.

T1 sequence (Q86WV6 whole entry H232R): as the sequence (Q86WV6 whole entry R71H/G230A/H232R/R293Q) above, with H71R, A230G, Q293R counted along it

Take `CCNn1c(Nc2c[nH]c3c(F)cc(F)cc23)nc2cc(C(F)(F)F)cc(F)c21` [Example 22, N2-(5,7-difluoro-1H-indol-3-yl)-N1-ethyl-7-fluoro-5-(trifluoromethyl)-1H-benzo[d]imidazole-1,2-diamine hydrochloride]: the figures for the IC50 in assay [1] and in assay [2] were < 100 nM and 10 to 100 nM, respectively.

Regarding `CNn1c(Nc2c[nH]c3ccc(F)c(F)c23)nc2cc(C(F)(F)F)ccc21` [Example 3, N2-(4,5-difluoro-1H-indol-3-yl)-N1-methyl-5-(trifluoromethyl)-1H-benzo[d]imidazol-1,2-diamine Hydrochloride], the IC50 in assay [1] is < 100 nM; in assay [2], < 10 nM.

On to `CC(C)Nn1c(Nc2c[nH]c3ccc(Cl)cc23)nc2cc(C(F)(F)F)ccc21` [Example 20, N2-(5-chloro-1H-indol-3-yl)-N1-isopropyl-5-(trifluoromethyl)-1H-benzo[d]imidazole-1,2-diamine], for which, in assay [1], the “Inhibitory Activity on hSTING” value is given as “* *”.

`CCCNn1c(Nc2c[nH]c3ccc(Cl)cc23)nc2cc(C(F)(F)F)ccc21` [Example 24, N2-(5-chloro-1H-indol-3-yl)-N1-propyl-5-(trifluoromethyl)-1H-benzo[d]imidazole-1,2-diamine]: the IC50 in assay [1] is < 100 nM; in assay [2], 10 to 100 nM.

Regarding `CNn1c(Nc2c[nH]c3ccc(F)cc23)nc2cc(C(F)(F)F)ccc21` [Example 16, N2-(5-fluoro-1H-indol-3-yl)-N1-methyl-5-(trifluoromethyl)-1H-benzo[d]imidazole-1,2-diamine hydrochloride], the IC50 in assay [1] is < 100 nM; in assay [2] it was < 10 nM.

Regarding `CNn1c(Nc2c[nH]c3cc(F)c(F)cc23)nc2cc(C(F)(F)F)c(F)cc21` [Example 10, N2-(5,6-difluoro-1H-indol-3-yl)-6-fluoro-N1-methyl-5-(trifluoromethyl)-1H-benzo[d]imidazole-1,2-diamine], the results for the IC50 in assay [1] and in assay [2] were 100 to 1000 nM and 10 to 100 nM, respectively.

For `CCNn1c(Nc2c[nH]c3ccc(F)cc23)nc2cc(C(F)(F)F)ccc21` [Example 29, N1-ethyl-N2-(5-fluoro-1H-indol-3-yl)-5-(trifluoromethyl)-1H-benzo[d]imidazole-1,2-diamine], the results for the IC50 in assay [1] and in assay [2] were < 100 nM and 10 to 100 nM, respectively.

Consider `CNn1c(Nc2c[nH]c3ccc(C)cc23)nc2cc(C(F)(F)F)c(F)cc21` [Example 8, 6-fluoro-N1-methyl-N2-(5-methyl-1H-indol-3-yl)-5-(trifluoromethyl)-1H-benzo[d]imidazole-1,2-diamine], for which the results for the IC50 in assay [1] and in assay [2] were < 100 nM and < 10 nM, respectively.

Take `CCNn1c(Nc2c[nH]c3ccc(Cl)cc23)nc2cc(C(F)(F)F)cc(F)c21` [Example 14, N2-(5-chloro-1H-indol-3-yl)-N1-ethyl-7-fluoro-5-(trifluoromethyl)-1H-benzo[d]imidazole-1,2-diamine]: the results for the IC50 in assay [1] and in assay [2] were < 100 nM and < 10 nM, respectively.

With `CCNn1c(Nc2c[nH]c3c(F)cc(F)cc23)nc2cc(C(F)(F)F)ccc21` [Example 19, N2-(5,7-difluoro-1H-indol-3-yl)-N1-ethyl-5-(trifluoromethyl)-1H-benzo[d]imidazole-1,2-diamine], the IC50 in assay [1] is < 100 nM; in assay [2], < 10 nM.

`CNn1c(Nc2c[nH]c3c(F)cc(F)cc23)nc2cc(C(F)(F)F)ccc21` [Example 5, N2-(5,7-difluoro-1H-indol-3-yl)-N1-methyl-5-(trifluoromethyl)-1H-benzo[d]imidazol-1,2-diamine]: the IC50 in assay [1] was < 100 nM; in assay [2], < 10 nM.

Consider `Cc1ccc2[nH]cc(Nc3nc4cc(C(F)(F)F)c(F)cc4n3N)c2c1` [Example 9, 6-fluoro-N2-(5-methyl-1H-indol-3-yl)-5-(trifluoromethyl)-1H-benzo[d]imidazole-1,2-diamine hydrochloride], for which the IC50 in assay [1] was 100 to 1000 nM; in assay [2] it was < 10 nM.
